The numbers were not newly measured in patent US20010036664A1, “L-leucyl-L-leucine methyl ester treatment of donor lypmhocyte infusions in bone marrow transplant patients” (priority 2000, published 2001), which cites them from elsewhere.

One data set relates to GVHD. To be noted: ex vivo treatment of bone marrow grafts; multiple murine models.
The next data set has as its system GVHD-inducing T cells. To be noted: stem cell toxicity occurs at this concentration.

As to `COC(=O)[C@H](CC(C)C)NC(=O)[C@@H](N)CC(C)C` [LLME, L-leucyl-L-leucine methyl ester], the “prevention of GVHD” value with GVHD is on record as “completely prevent GVHD”. Also, the “concentrations necessary to purge GVHD-inducing T cells” value in the data set on GVHD-inducing T cells was 500 µM.
